For orientation: IC50 means the concentration at which inhibition is half-maximal.

Results on 14 molecules are retold here after patent US10874670B2, “Substituted fused heteroaromatic compounds as kinase inhibitors and the use thereof” (IMPACT THERAPEUTICS, INC., priority 2017, dated 2020).

Assay [1] has as its system human colon cancer cell SW620. Description: MTT assay, growth of SW620 cells, compounds combined with CPT-11. Type of assay: cell-based. Conditions: for IC50: combined with CPT-11 (205 nM medium), 5 days, MTT. A digest of the protocol: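 SW620 cells in RPMI 1640/10% FBS were exposed to 8-point compound dilutions (top 10 or 1 μM, 1% DMSO final) plus CPT-11 (205 nM in added medium) for 5 days at 37 °C. Viability by MTT (0.5 mg/mL, 4 h) absorbance; IC50 from sigmoidal fit.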
For orientation: Formazan colour is commonly taken as a measure of viable cells.

The next assay concerns the target ATM enzyme (human) (Homo sapiens, UniProt Q13315). As to the kind of experiment: ATM kinase assay (HTRF, GST-cMyc-p53 substrate). In kind it is biochemical. Conditions: for inhibition at 0.01 µM: C 0.01 μm (final concentration of compound); for inhibition at 0.1 µM: C 0.1 μm (final concentration of compound). In a few lines:
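Reaction with GST-cMyc-p53 substrate started with Mg/ATP, run 30 minutes at room temperature, then stopped with EDTA. Phospho-p53 (Ser15) detected by HTRF with Eu-labelled anti-phospho antibody and d2 anti-GST, signal as 10000×(Em665/Em620). Duplicates; IC50 from a curve fit with slope factor.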

For assay [2], the system named is human breast cancer cell MDA-MB-468. As to the kind of experiment: MTT assay, growth of MDA-MB-468 cells. In kind it is cell-based. As to conditions: for IC50: 7 days, MTT. In a few lines:
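MDA-MB-468 cells in RPMI 1640 with 10% FBS were exposed to 8-point compound dilutions (final DMSO 1%) for 7 days at 37 °C, with drug-containing medium renewed on day 4. Viability was read by MTT (0.5 mg/mL, 4 h) absorbance at 552/630/690 nm. IC50 came from a sigmoidal dose-response fit.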

[3] abbreviates: 0.5 h, C 1 μm (final concentration of compound), read-out: Inh (%) of ATM kinase.
Setting [4] is: Homo sapiens, MDA-MB-468, 168 h.
Setting [5] is: 0.5 h, read-out: Inh (%) of ATM kinase.

Read-outs that look alike come from different tables or passages of the source.

Chain of ATM enzyme (human) (Q13315 whole entry): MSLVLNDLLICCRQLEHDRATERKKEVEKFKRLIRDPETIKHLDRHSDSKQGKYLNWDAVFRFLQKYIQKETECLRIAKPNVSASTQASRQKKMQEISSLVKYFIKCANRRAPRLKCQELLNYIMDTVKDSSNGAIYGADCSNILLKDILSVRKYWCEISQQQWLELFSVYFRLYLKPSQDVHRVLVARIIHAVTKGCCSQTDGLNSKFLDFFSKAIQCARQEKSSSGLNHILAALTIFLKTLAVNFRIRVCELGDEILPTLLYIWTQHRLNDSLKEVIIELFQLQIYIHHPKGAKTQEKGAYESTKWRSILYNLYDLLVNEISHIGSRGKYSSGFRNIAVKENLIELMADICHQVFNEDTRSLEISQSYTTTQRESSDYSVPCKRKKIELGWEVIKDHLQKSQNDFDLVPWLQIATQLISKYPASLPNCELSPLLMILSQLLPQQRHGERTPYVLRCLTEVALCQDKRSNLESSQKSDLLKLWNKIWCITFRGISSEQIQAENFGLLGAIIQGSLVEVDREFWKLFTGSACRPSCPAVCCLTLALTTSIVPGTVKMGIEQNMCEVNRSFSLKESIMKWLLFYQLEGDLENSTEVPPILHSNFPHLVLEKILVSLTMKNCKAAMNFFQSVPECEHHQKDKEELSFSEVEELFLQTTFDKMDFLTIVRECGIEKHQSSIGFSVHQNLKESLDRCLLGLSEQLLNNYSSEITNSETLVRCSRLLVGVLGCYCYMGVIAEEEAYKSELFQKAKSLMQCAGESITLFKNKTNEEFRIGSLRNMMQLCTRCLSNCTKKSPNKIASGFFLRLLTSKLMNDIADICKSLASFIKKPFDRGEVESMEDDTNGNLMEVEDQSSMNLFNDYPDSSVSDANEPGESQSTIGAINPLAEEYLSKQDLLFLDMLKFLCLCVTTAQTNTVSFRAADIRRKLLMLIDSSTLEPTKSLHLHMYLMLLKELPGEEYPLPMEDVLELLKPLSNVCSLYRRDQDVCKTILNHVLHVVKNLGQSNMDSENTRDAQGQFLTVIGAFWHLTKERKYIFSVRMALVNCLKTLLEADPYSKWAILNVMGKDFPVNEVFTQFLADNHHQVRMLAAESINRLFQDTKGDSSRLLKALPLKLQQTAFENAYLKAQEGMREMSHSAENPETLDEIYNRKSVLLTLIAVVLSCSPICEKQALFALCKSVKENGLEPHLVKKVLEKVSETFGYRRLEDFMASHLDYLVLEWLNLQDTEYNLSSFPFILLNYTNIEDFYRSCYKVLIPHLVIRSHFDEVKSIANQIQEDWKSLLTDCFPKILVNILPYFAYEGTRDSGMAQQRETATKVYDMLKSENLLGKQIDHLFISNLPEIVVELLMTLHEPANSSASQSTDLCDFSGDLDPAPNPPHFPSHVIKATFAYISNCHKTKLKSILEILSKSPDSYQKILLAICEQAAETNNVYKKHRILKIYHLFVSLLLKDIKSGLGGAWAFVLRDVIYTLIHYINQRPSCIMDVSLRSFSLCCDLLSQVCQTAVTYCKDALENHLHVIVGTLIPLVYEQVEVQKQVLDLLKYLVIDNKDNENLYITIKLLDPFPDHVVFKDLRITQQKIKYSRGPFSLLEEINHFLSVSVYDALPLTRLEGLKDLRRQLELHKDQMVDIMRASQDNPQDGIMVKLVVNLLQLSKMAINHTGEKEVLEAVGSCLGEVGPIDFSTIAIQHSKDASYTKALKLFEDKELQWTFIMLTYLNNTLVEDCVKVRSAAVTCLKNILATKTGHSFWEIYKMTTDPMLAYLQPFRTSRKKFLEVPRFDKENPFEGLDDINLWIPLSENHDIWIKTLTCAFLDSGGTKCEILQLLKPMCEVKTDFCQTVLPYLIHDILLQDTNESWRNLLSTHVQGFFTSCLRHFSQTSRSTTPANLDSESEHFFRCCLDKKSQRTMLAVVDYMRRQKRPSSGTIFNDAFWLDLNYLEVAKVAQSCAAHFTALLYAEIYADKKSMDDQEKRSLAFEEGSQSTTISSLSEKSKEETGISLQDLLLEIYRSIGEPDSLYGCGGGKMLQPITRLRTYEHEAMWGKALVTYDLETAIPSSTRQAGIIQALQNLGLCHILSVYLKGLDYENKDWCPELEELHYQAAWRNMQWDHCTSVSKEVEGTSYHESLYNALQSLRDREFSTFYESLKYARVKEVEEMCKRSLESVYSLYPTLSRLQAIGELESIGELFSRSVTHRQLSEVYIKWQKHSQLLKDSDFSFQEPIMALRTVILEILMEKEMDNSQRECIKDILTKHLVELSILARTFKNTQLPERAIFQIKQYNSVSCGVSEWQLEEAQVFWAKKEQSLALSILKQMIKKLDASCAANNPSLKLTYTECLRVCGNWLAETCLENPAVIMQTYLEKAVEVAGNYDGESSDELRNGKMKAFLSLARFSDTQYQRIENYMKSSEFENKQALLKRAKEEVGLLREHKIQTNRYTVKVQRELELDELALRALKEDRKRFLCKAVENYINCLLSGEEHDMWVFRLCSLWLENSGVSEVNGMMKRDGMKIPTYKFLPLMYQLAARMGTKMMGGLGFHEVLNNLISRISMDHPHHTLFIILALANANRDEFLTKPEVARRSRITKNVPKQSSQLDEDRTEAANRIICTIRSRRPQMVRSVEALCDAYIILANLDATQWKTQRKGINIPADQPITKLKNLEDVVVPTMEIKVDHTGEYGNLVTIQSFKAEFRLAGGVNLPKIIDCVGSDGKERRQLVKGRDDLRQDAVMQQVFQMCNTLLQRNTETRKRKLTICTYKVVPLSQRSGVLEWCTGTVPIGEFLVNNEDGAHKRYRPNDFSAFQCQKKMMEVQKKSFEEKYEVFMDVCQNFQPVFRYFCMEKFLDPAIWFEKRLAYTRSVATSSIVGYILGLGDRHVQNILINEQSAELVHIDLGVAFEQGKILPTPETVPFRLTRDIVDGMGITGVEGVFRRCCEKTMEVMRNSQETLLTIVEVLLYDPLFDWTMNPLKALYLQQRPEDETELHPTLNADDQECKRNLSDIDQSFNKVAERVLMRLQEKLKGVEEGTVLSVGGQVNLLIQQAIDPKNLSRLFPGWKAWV

Consider `c1ccc(-c2cc3c(cn2)ncc2nnc(C4CCOCC4)n23)cc1` [Example 67, 8-phenyl-1-(tetrahydro-2H-pyran-4-yl)pyrido[3,4-e][1,2,4]triazolo[4,3-a]pyrazine], for which the IC50 in assay [1] (Homo sapiens, SW-620, 120 h) was greater than 100000 nM; in assay [2] (setting [4]) it was greater than 100000 nM. Moreover, the inhibition at 1 µM at ATM enzyme (human) (setting [3]) stood at 19%.
Turning to `CN(C)CCCOc1ccc(-c2ccc3ncc4nnc(CN5CCOCC5)n4c3c2)cc1` [Example 27, N,N-dimethyl-3-(4-(1-(morpholinomethyl)-[1,2,4]triazolo[4,3-a]quinoxalin-8-yl)phenoxy)propan-1-amine], in assay [1] (Homo sapiens, SW-620, 120 h), the IC50 worked out at 470 nM. At ATM enzyme (human) (setting [5]), the inhibition at 0.01 µM came to 43% and the inhibition at 0.1 µM is 84%. On ATM enzyme (human) (setting [3]), the inhibition at 1 µM is 99%. In assay [2] (setting [4]), this molecule showed an IC50 of 452 nM.
With `C[C@@H]1CN(c2nnc3cnc4ccc(-c5ccc(OCCCN(C)C)c(C(F)(F)F)c5)cc4n23)C[C@H](C)N1C` [Example 57, N,N-dimethyl-3-(2-(trifluoromethyl)-4-(1-((3S,5R)-3,4,5-trimethylpiperazin-1-yl)-[1,2,4]triazolo[4,3-a]quinoxalin-8-yl)phenoxy)propan-1-amine], the IC50 came to 11.8 nM in assay [1] (Homo sapiens, SW-620, 120 h) and 15 nM in assay [2] (setting [4]). The “inhibitory effect on the growth of SW620 cells (in words)” value in assay [1] (MTT assay, combined with CPT-11) is reported as “comparable to AZD0156”. Besides, the inhibition at 0.001 µM at ATM enzyme (human) (0.5 h, C 0.001 μm (final concentration of compound), read-out: Inh (%) of ATM kinase) is 60%; at ATM enzyme (human) (at 1 nM, read-out: inhibitory effect on ATM kinase) it was greater than 50%. For the same molecule, the inhibition at 0.01 µM at ATM enzyme (human) (setting [5]) was determined as 98%. Besides, on ATM enzyme (human) (setting [5]), the inhibition at 0.1 µM came out at 100%. Also, the inhibition at 1 µM on ATM enzyme (human) (setting [3]) was 100%. In addition, the “inhibitory effect on the growth of MDA-MB-468 cells (in words)” value in assay [2] (MTT assay) was “comparable to AZD0156”.
For the molecule `CN(C)C1CCN(c2ccc(-c3ccc4ncc5nnc(N6CCC(N(C)C)CC6)n5c4c3)cc2)CC1` [Example 64, 1-(4-(1-(4-(dimethylamino)piperidin-1-yl)-[1,2,4]triazolo[4,3-a]quinoxalin-8-yl)phenyl)-N,N-dimethylpiperidin-4-amine], the IC50 in assay [1] (Homo sapiens, SW-620, 120 h) was greater than 10000 nM; in assay [2] (setting [4]) it was greater than 10000 nM. Moreover, the inhibition at 1 µM at ATM enzyme (human) (setting [3]) was determined as 98%.
Take `CN(C)CCCOc1ccc(-c2ccc3ncc4nnc(N5CCN(C)CC5)n4c3c2)cc1` [Example 22, N,N-dimethyl-3-(4-(1-(4-methylpiperazin-1-yl)-[1,2,4]triazolo[4,3-a]quinoxalin-8-yl)phenoxy)propan-1-amine]: the IC50 in assay [1] (Homo sapiens, SW-620, 120 h) was found to be 413 nM; in assay [2] (setting [4]), 422 nM. Also, at ATM enzyme (human) (setting [3]), the inhibition at 1 µM stood at 100%.
On to `CN(C)CCCOc1ccc(-c2ccc3ncc4nnc(N5CCCCC5)n4c3c2)cc1` [Example 20, N,N-dimethyl-3-(4-(1-(piperidin-1-yl)-[1,2,4]triazolo[4,3-a]quinoxalin-8-yl)phenoxy)propan-1-amine], for which, in assay [1] (Homo sapiens, SW-620, 120 h), the IC50 stood at 144 nM. In addition, at ATM enzyme (human) (setting [5]), the inhibition at 0.01 µM is 79% and the inhibition at 0.1 µM was determined as 99%. Moreover, the inhibition at 1 µM at ATM enzyme (human) (setting [3]) stood at 100%. The molecule also displayed an IC50 in assay [2] (setting [4]) of 122 nM.
For the molecule `CN(C)CCCOc1ccc(-c2ccc3ncc4nnc(N5CCOCC5)n4c3c2)cc1` [Example 21, N,N-dimethyl-3-(4-(1-morpholino-[1,2,4]triazolo[4,3-a]quinoxalin-8-yl)phenoxy)propan-1-amine], the IC50 in assay [1] (Homo sapiens, SW-620, 120 h) came out at 334 nM; in assay [2] (setting [4]), 372 nM. The inhibition at 1 µM at ATM enzyme (human) (setting [3]) came out at 100%.
Take `Cc1cc(N2CCC(N(C)C)CC2)ccc1-c1ccc2ncc3nnc(C4CCOCC4)n3c2c1` [Example 50, N,N-dimethyl-1-(3-methyl-4-(1-(tetrahydro-2H-pyran-4-yl)-[1,2,4]triazolo[4,3-a]quinoxalin-8-yl)phenyl)piperidin-4-amine]: the IC50 in assay [1] (Homo sapiens, SW-620, 120 h) is greater than 10000 nM; in assay [2] (setting [4]), greater than 100000 nM. Further, the inhibition at 1 µM at ATM enzyme (human) (setting [3]) was 80%.
The corresponding values for `CN(C)Cc1ccc(-c2cc3c(cn2)ncc2nnc(C4CCOCC4)n23)cc1` [Example 68, N,N-dimethyl-1-(4-(1-(tetrahydro-2H-pyran-4-yl)pyrido[3,4-e][1,2,4]triazolo[4,3-a]pyrazin-8-yl)phenyl)methanamine] are greater than 100000 nM, greater than 100000 nM and 0%.
For `CNC1CCN(c2ccc(-c3ccc4ncc5nnc(CN6CCOCC6)n5c4n3)cc2)CC1` [Example 77, N-methyl-1-(4-(9-(morpholinomethyl)pyrido[3,2-e][1,2,4]triazolo[4,3-a]pyrazin-2-yl)phenyl)piperidin-4-amine], in that order: 1010 nM, 937 nM and 97%.
As for `CN(C)CCCOc1ccc(-c2ccc3ncc4nnc(C5CCOCC5)n4c3c2)cc1` [Example 4, N,N-dimethyl-3-(4-(1-(tetrahydro-2H-pyran-4-yl)-[1,2,4]triazolo[4,3-a]quinoxalin-8-yl)phenoxy)propan-1-amine], the IC50 in assay [1] (Homo sapiens, SW-620, 120 h) worked out at 328 nM; on ATM enzyme (human) (10-concentration dilution series, read-out: IC50, inhibition of ATM kinase), 9 nM; in assay [2] (setting [4]), 950 nM. The inhibition at 10 µM on ATM enzyme (human) (0.5 h, C 10 μm (final concentration of compound), read-out: Inh (%) of ATM kinase) was 100%. In addition, the “inhibitory effect on ATM kinase (in words)” value against ATM enzyme (human) (ATM kinase (human) assay) is on record as “good inhibitory effect”.
As for `CN(C)CCCOc1ccc(-c2ccc3ncc4c(c3c2)n(C2CCOCC2)c(=O)n4C)cn1` [AZD0156, reference compound], the results for the half-inhibitory concentration (IC50) in assay [1] and in assay [2] were 10 nM and 10.9 nM, respectively. Besides, the “Inh (%) of ATM kinase” value on ATM enzyme (human) (C 1 μm (final concentration of compound)) came out at 100%.
On to `CN(C)CC1CCN(c2ccc(-c3ccc4ncc5nnc(C6CCOCC6)n5c4c3)cc2)CC1` [Example 53, N,N-dimethyl-1-(1-(4-(1-(tetrahydro-2H-pyran-4-yl)-[1,2,4]triazolo[4,3-a]quinoxalin-8-yl)phenyl)piperidin-4-yl)methanamine], for which the IC50 in assay [1] (Homo sapiens, SW-620, 120 h) is greater than 100000 nM; in assay [2] (setting [4]), greater than 100000 nM. For the same molecule, the inhibition at 1 µM on ATM enzyme (human) (setting [3]) is 77%.
For the molecule `CNC1CCN(c2ccc(-c3ccc4ncc5nnc(C6CCOCC6)n5c4n3)cc2)CC1` [Example 74, N-methyl-1-(4-(9-(tetrahydro-2H-pyran-4-yl)pyrido[3,2-e][1,2,4]triazolo[4,3-a]pyrazin-2-yl)phenyl)piperidin-4-amine], in assay [1] (Homo sapiens, SW-620, 120 h), the IC50 turned out to be 199 nM. In addition, at ATM enzyme (human) (setting [5]), the inhibition at 0.01 µM came to 66% and the inhibition at 0.1 µM worked out at 96%. In addition, the inhibition at 1 µM at ATM enzyme (human) (setting [3]) turned out to be 100%. This molecule also yielded an IC50 in assay [2] (setting [4]) of 305 nM.
